# “And” between values parts separate entries of the source, which are not always exact repeats. Identical values can stand only once. Like-named read-outs stand apart in the source and are kept apart here.
# System: toxicologically relevant rat genes (rat CT array)
structure (smiles),measurement,setting,value
Brc1ccccc1 [bromobenzene],Phase-1 RCT-192 expression (treatment/control),"24 h, dose 200, listed as BRB",1.596
same,Phase-1 RCT-213 expression (treatment/control),"24 h, dose 200, listed as BRB",1.467
same,Phase-1 RCT-214 expression (treatment/control),"24 h, dose 200, listed as BRB",0.4191 and 0.7327 and 0.3835
same,Phase-1 RCT-239 expression (treatment/control),"24 h, dose 200, listed as BRB",0.6828
same,Phase-1 RCT-258 expression (treatment/control),"24 h, dose 200, listed as BRB",0.9631 and 1.542
same,Phase-1 RCT-271 expression (treatment/control),"24 h, dose 200, listed as BRB",0.5825 and 0.5279
same,Phase-1 RCT-291 expression (treatment/control),"24 h, dose 200, listed as BRB",1.199 and 0.6861
same,Phase-1 RCT-295 expression (treatment/control),"24 h, dose 200, listed as BRB",2.141 and 1.945 and 1.916
same,Proliferating cell nuclear antigen gene expression (treatment/control),"24 h, dose 200, listed as BRB",1.304 and 0.7642 and 1.223
same,"Pyruvate kinase, muscle expression (treatment/control)","24 h, dose 200, listed as BRB",1.814 and 1.17 and 1.778
same,Ref-1 expression (treatment/control),"24 h, dose 200, listed as BRB",2.201 and 1.238 and 2.06
same,Ribosomal protein L13A expression (treatment/control),"24 h, dose 200, listed as BRB",2.014 and 1.811 and 2.099
same,Ribosomal protein S8 expression (treatment/control),"24 h, dose 200, listed as BRB",2.657 and 2.216 and 2.391
same,Ribosomal protein S9 expression (treatment/control),"24 h, dose 200, listed as BRB",1.821 and 1.272 and 1.544
same,Ribosomal protein S17 expression (treatment/control),"24 h, dose 200, listed as BRB",2.853 and 2.061 and 2.44
same,Superoxide dismutase Mn expression (treatment/control),"24 h, dose 200, listed as BRB",2.675 and 1.611 and 3.075
same,T-cell cyclophilin expression (treatment/control),"24 h, dose 200, listed as BRB",1.63 and 1.482 and 1.522
same,Thymosin beta-10 expression (treatment/control),"24 h, dose 200, listed as BRB",1.331 and 1.367 and 1.373
same,Ubiquitin conjugating enzyme (RAD 6 homologue) expression (treatment/control),"24 h, dose 200, listed as BRB",1.182 and 0.8017 and 1.22
same,Uncoupling protein 2 expression (treatment/control),"24 h, dose 200, listed as BRB",0.9873 and 1.103
same,c-H-ras expression (treatment/control),"24 h, dose 200, listed as BRB",1.3
same,c-jun expression (treatment/control),"24 h, dose 200, listed as BRB",1.819 and 1.494 and 2.242
same,p53 expression (treatment/control),"24 h, dose 200, listed as BRB",1.448 and 1.7
same,{Ribosomal protein L6} expression (treatment/control),"24 h, dose 200, listed as BRB",2.964 and 2.141 and 2.538
same,14-3-3 zeta expression (treatment/control),"24 h, dose 800, listed as BRB",1.787 and 1.416 and 1.415
same,"17-beta hydroxysteroid dehydrogenase, type 2 expression (treatment/control)","24 h, dose 800, listed as BRB",0.2858 and 0.3548 and 0.3188
same,"Cathepsin L, sequence 2 expression (treatment/control)","24 h, dose 800, listed as BRB",3.444 and 2.804 and 1.941
same,Dynamin-1 (D100) expression (treatment/control),"24 h, dose 800, listed as BRB",0.7266 and 0.7238 and 0.7854
same,Gadd45 expression (treatment/control),"24 h, dose 800, listed as BRB",3.152 and 4.261 and 2.965
same,"Gamma-actin, cytoplasmic expression (treatment/control)","24 h, dose 800, listed as BRB",4.159 and 3.751 and 3.387
same,Insulin-like growth factor binding protein 1 expression (treatment/control),"24 h, dose 800, listed as BRB",2.338 and 2.353 and 1.62
same,L-gulono-gamma-lactone oxidase expression (treatment/control),"24 h, dose 800, listed as BRB",0.3036 and 0.326 and 0.3525
same,Matrin F/G expression (treatment/control),"24 h, dose 800, listed as BRB",0.4315 and 0.4295 and 0.6079
same,Ornithine decarboxylase expression (treatment/control),"24 h, dose 800, listed as BRB",2.92 and 2.902 and 2.002
same,PAR interacting protein expression (treatment/control),"24 h, dose 800, listed as BRB",3.554 and 2.34
same,Phase-1 RCT-33 expression (treatment/control),"24 h, dose 800, listed as BRB",0.6976 and 0.5633 and 0.5757
same,Phase-1 RCT-36 expression (treatment/control),"24 h, dose 800, listed as BRB",0.7359 and 0.7782
same,Phase-1 RCT-38 expression (treatment/control),"24 h, dose 800, listed as BRB",0.4296 and 0.4024 and 0.4536
same,Phase-1 RCT-39 expression (treatment/control),"24 h, dose 800, listed as BRB",1.555 and 1.399
same,Phase-1 RCT-40 expression (treatment/control),"24 h, dose 800, listed as BRB",0.4257 and 0.4952 and 0.445
same,Phase-1 RCT-48 expression (treatment/control),"24 h, dose 800, listed as BRB",0.6158 and 0.633
same,Phase-1 RCT-49 expression (treatment/control),"24 h, dose 800, listed as BRB",2.478 and 2.062 and 1.658
same,Phase-1 RCT-50 expression (treatment/control),"24 h, dose 800, listed as BRB",2.438 and 2.537 and 1.76
same,Phase-1 RCT-68 expression (treatment/control),"24 h, dose 800, listed as BRB",2.05 and 1.892 and 1.519
same,Phase-1 RCT-78 expression (treatment/control),"24 h, dose 800, listed as BRB",0.5752 and 0.6922 and 0.6621
same,Phase-1 RCT-83 expression (treatment/control),"24 h, dose 800, listed as BRB",0.6019 and 0.6858 and 0.5634
same,Phase-1 RCT-89 expression (treatment/control),"24 h, dose 800, listed as BRB",0.4544 and 0.462 and 0.4723
same,Phase-1 RCT-92 expression (treatment/control),"24 h, dose 800, listed as BRB",0.4761 and 0.6497 and 0.7002
same,Phase-1 RCT-128 expression (treatment/control),"24 h, dose 800, listed as BRB",0.5684 and 0.564 and 0.6
same,Phase-1 RCT-144 expression (treatment/control),"24 h, dose 800, listed as BRB",3.092 and 2.983 and 2.106
same,Phase-1 RCT-145 expression (treatment/control),"24 h, dose 800, listed as BRB",2.75 and 1.96 and 1.846
same,Phase-1 RCT-180 expression (treatment/control),"24 h, dose 800, listed as BRB",1.726
same,Phase-1 RCT-182 expression (treatment/control),"24 h, dose 800, listed as BRB",0.5041 and 0.56 and 0.6572
same,Phase-1 RCT-207 expression (treatment/control),"24 h, dose 800, listed as BRB",3.826 and 2.754 and 2.464
same,Phase-1 RCT-213 expression (treatment/control),"24 h, dose 800, listed as BRB",2.021 and 2.316 and 1.605
same,Phase-1 RCT-256 expression (treatment/control),"24 h, dose 800, listed as BRB",0.3752 and 0.4196 and 0.4307
same,Phase-1 RCT-258 expression (treatment/control),"24 h, dose 800, listed as BRB",1.65
same,Phase-1 RCT-264 expression (treatment/control),"24 h, dose 800, listed as BRB",0.3546 and 0.4999 and 0.3553
same,Phase-1 RCT-271 expression (treatment/control),"24 h, dose 800, listed as BRB",0.5889 and 0.6221
same,Phase-1 RCT-288 expression (treatment/control),"24 h, dose 800, listed as BRB",0.3511 and 0.3915 and 0.4038
same,Phase-1 RCT-291 expression (treatment/control),"24 h, dose 800, listed as BRB",0.6663 and 0.746 and 0.732
same,Phase-1 RCT-295 expression (treatment/control),"24 h, dose 800, listed as BRB",1.75 and 2.065 and 1.52
same,Phase-1 RCT-296 expression (treatment/control),"24 h, dose 800, listed as BRB",0.3839 and 0.27 and 0.2605
same,Ribosomal protein S17 expression (treatment/control),"24 h, dose 800, listed as BRB",2.61 and 2.612 and 1.969
same,Senescence marker protein-30 expression (treatment/control),"24 h, dose 800, listed as BRB",0.1397 and 0.1646 and 0.1474
same,Zinc finger protein expression (treatment/control),"24 h, dose 800, listed as BRB",3.935 and 2.153 and 2.076
same,Paraoxonase 1 expression (treatment/control),"rat, in vivo",0.8235 and 0.866 and 0.513

# Reference: patent publication US20040076974A1, “Liver necrosis predictive genes” (priority 2002, published 2004)
